In the NIST ThermoML archive (doi:10.1007/s10765-007-0169-z):

Experiments:
[1] = xn = mol fraction of the nth substance listed; details: Drop volume
[2] = for surface tension liquid-gas: Drop volume; for mass density: 101.33 kPa, Liquid, Pycnometric method

CCC(C)Cl (centres undefined) [2-chlorobutane] + C1CCOC1
[1]
Details	surface tension liquid-gas [mN/m]
298.15 K, x2 = 0.0427	21.96
298.15 K, x2 = 0.1259	22.24
298.15 K, x2 = 0.2478	22.71
298.15 K, x2 = 0.3589	23.19
298.15 K, x2 = 0.4628	23.68
298.15 K, x2 = 0.5654	24.19
298.15 K, x2 = 0.6678	24.74
298.15 K, x2 = 0.7513	25.22
298.15 K, x2 = 0.84	25.77
298.15 K, x2 = 0.9208	26.35
298.15 K, x2 = 0.9701	26.76
313.15 K, x2 = 0.0581	19.7
313.15 K, x2 = 0.124	20.12
313.15 K, x2 = 0.2442	20.84
313.15 K, x2 = 0.3595	21.47
313.15 K, x2 = 0.4761	22.05
313.15 K, x2 = 0.573	22.53
313.15 K, x2 = 0.6654	23
313.15 K, x2 = 0.7524	23.45
313.15 K, x2 = 0.836	23.94
313.15 K, x2 = 0.9209	24.49
313.15 K, x2 = 0.9663	24.81

CCCCCl [1-chlorobutane] + C1CCOCC1
[1]
Details	surface tension liquid-gas [mN/m]
298.15 K, x2 = 0.0421	23.43
298.15 K, x2 = 0.1082	23.65
298.15 K, x2 = 0.2121	24.02
298.15 K, x2 = 0.3174	24.41
298.15 K, x2 = 0.4245	24.82
298.15 K, x2 = 0.5222	25.21
298.15 K, x2 = 0.6243	25.63
298.15 K, x2 = 0.7209	26.04
298.15 K, x2 = 0.8105	26.43
298.15 K, x2 = 0.9103	26.88
298.15 K, x2 = 0.9655	27.13
313.15 K, x2 = 0.0319	21.69
313.15 K, x2 = 0.1092	21.95
313.15 K, x2 = 0.208	22.29
313.15 K, x2 = 0.3137	22.66
313.15 K, x2 = 0.4209	23.04
313.15 K, x2 = 0.5149	23.39
313.15 K, x2 = 0.6199	23.8
313.15 K, x2 = 0.717	24.19
313.15 K, x2 = 0.8126	24.59
313.15 K, x2 = 0.9067	24.99
313.15 K, x2 = 0.965	25.24

C1CCOCC1 [tetrahydropyran]
[2]
Details	mass density [kg/m3]	surface tension liquid-gas [mN/m]
298.15 K	878.81	27.29
313.15 K	–	25.39

CC(C)(C)Cl [2-chloro-2-methylpropane] + C1CCOCC1
[1]
Details	surface tension liquid-gas [mN/m]
298.15 K, x2 = 0.0332	19.18
298.15 K, x2 = 0.0955	19.68
298.15 K, x2 = 0.2242	20.68
298.15 K, x2 = 0.3219	21.37
298.15 K, x2 = 0.4336	22.17
298.15 K, x2 = 0.5374	22.97
298.15 K, x2 = 0.6269	23.69
298.15 K, x2 = 0.7173	24.48
298.15 K, x2 = 0.8149	25.41
298.15 K, x2 = 0.9089	26.36
298.15 K, x2 = 0.9418	26.71
313.15 K, x2 = 0.0734	17.35
313.15 K, x2 = 0.1038	17.5
313.15 K, x2 = 0.2093	18.14
313.15 K, x2 = 0.3169	18.9
313.15 K, x2 = 0.4363	19.8
313.15 K, x2 = 0.5116	20.41
313.15 K, x2 = 0.612	21.24
313.15 K, x2 = 0.7058	22.05
313.15 K, x2 = 0.8154	23.08
313.15 K, x2 = 0.9006	23.98
313.15 K, x2 = 0.9529	24.66

CC(C)CCl [1-chloro-2-methylpropane] + C1CCOC1
[1]
Details	surface tension liquid-gas [mN/m]
298.15 K, x2 = 0.0652	22.25
298.15 K, x2 = 0.1201	22.54
298.15 K, x2 = 0.2392	23.06
298.15 K, x2 = 0.3613	23.53
298.15 K, x2 = 0.4622	23.94
298.15 K, x2 = 0.5682	24.44
298.15 K, x2 = 0.6614	24.9
298.15 K, x2 = 0.7586	25.42
298.15 K, x2 = 0.8408	25.89
298.15 K, x2 = 0.9257	26.45
298.15 K, x2 = 0.9662	26.75
313.15 K, x2 = 0.0619	19.77
313.15 K, x2 = 0.1268	20.25
313.15 K, x2 = 0.2531	21
313.15 K, x2 = 0.359	21.53
313.15 K, x2 = 0.4722	22.06
313.15 K, x2 = 0.5669	22.51
313.15 K, x2 = 0.659	22.97
313.15 K, x2 = 0.7539	23.45
313.15 K, x2 = 0.8338	23.88
313.15 K, x2 = 0.9198	24.42
313.15 K, x2 = 0.9751	24.83

CC(C)(C)Cl [2-chloro-2-methylpropane]
[2]
Details	mass density [kg/m3]	surface tension liquid-gas [mN/m]
298.15 K	836.45	18.9
313.15 K	–	16.98

CCC(C)Cl (centres undefined) [2-chlorobutane]
[2]
Details	mass density [kg/m3]	surface tension liquid-gas [mN/m]
298.15 K	867.37	21.93
313.15 K	–	19.33

CC(C)CCl [1-chloro-2-methylpropane] + C1CCOCC1
[1]
Details	surface tension liquid-gas [mN/m]
298.15 K, x2 = 0.0483	22.18
298.15 K, x2 = 0.1067	22.55
298.15 K, x2 = 0.2075	23.09
298.15 K, x2 = 0.32	23.63
298.15 K, x2 = 0.4148	24.07
298.15 K, x2 = 0.519	24.58
298.15 K, x2 = 0.6219	25.11
298.15 K, x2 = 0.7194	25.65
298.15 K, x2 = 0.8079	26.15
298.15 K, x2 = 0.9077	26.72
298.15 K, x2 = 0.9602	27.04
313.15 K, x2 = 0.0377	19.55
313.15 K, x2 = 0.1032	20.11
313.15 K, x2 = 0.2167	20.92
313.15 K, x2 = 0.3226	21.57
313.15 K, x2 = 0.4213	22.13
313.15 K, x2 = 0.5302	22.74
313.15 K, x2 = 0.6241	23.27
313.15 K, x2 = 0.7134	23.78
313.15 K, x2 = 0.8148	24.37
313.15 K, x2 = 0.9051	24.89
313.15 K, x2 = 0.966	25.22

CCC(C)Cl (centres undefined) [2-chlorobutane] + C1CCOCC1
[1]
Details	surface tension liquid-gas [mN/m]
298.15 K, x2 = 0.04	22.05
298.15 K, x2 = 0.1057	22.38
298.15 K, x2 = 0.2133	22.88
298.15 K, x2 = 0.3195	23.39
298.15 K, x2 = 0.4166	23.88
298.15 K, x2 = 0.5188	24.44
298.15 K, x2 = 0.6151	24.99
298.15 K, x2 = 0.7111	25.56
298.15 K, x2 = 0.8098	26.15
298.15 K, x2 = 0.9438	26.95
298.15 K, x2 = 0.9845	27.2
313.15 K, x2 = 0.0355	19.56
313.15 K, x2 = 0.1006	20.01
313.15 K, x2 = 0.2177	20.83
313.15 K, x2 = 0.3192	21.5
313.15 K, x2 = 0.4243	22.14
313.15 K, x2 = 0.5166	22.66
313.15 K, x2 = 0.5931	23.07
313.15 K, x2 = 0.7193	23.76
313.15 K, x2 = 0.8156	24.31
313.15 K, x2 = 0.9057	24.85
313.15 K, x2 = 0.991	25.34

CC(C)CCl [1-chloro-2-methylpropane]
[2]
Details	mass density [kg/m3]	surface tension liquid-gas [mN/m]
298.15 K	871.13	21.8
313.15 K	–	19.18

C1CCOC1 [tetrahydrofuran]
[2]
Details	mass density [kg/m3]	surface tension liquid-gas [mN/m]
298.15 K	881.95	27.04
313.15 K	–	25.05

CCCCCl [1-chlorobutane] + C1CCOC1
[1]
Details	surface tension liquid-gas [mN/m]
298.15 K, x2 = 0.0526	23.45
298.15 K, x2 = 0.1121	23.62
298.15 K, x2 = 0.2436	23.98
298.15 K, x2 = 0.3549	24.29
298.15 K, x2 = 0.4671	24.65
298.15 K, x2 = 0.5624	25
298.15 K, x2 = 0.6678	25.41
298.15 K, x2 = 0.7575	25.79
298.15 K, x2 = 0.84	26.16
298.15 K, x2 = 0.9224	26.58
298.15 K, x2 = 0.9739	26.87
313.15 K, x2 = 0.0654	21.78
313.15 K, x2 = 0.1272	21.95
313.15 K, x2 = 0.25	22.28
313.15 K, x2 = 0.3654	22.59
313.15 K, x2 = 0.4658	22.89
313.15 K, x2 = 0.5586	23.2
313.15 K, x2 = 0.6569	23.56
313.15 K, x2 = 0.7489	23.92
313.15 K, x2 = 0.8401	24.3
313.15 K, x2 = 0.9272	24.69
313.15 K, x2 = 0.9663	24.88

CCCCCl [1-chlorobutane]
[2]
Details	mass density [kg/m3]	surface tension liquid-gas [mN/m]
298.15 K	880.69	23.29
313.15 K	–	21.58

CC(C)(C)Cl [2-chloro-2-methylpropane] + C1CCOC1
[1]
Details	surface tension liquid-gas [mN/m]
298.15 K, x2 = 0.0664	19.32
298.15 K, x2 = 0.1332	19.74
298.15 K, x2 = 0.2532	20.51
298.15 K, x2 = 0.3652	21.26
298.15 K, x2 = 0.4851	22.11
298.15 K, x2 = 0.5768	22.81
298.15 K, x2 = 0.6804	23.66
298.15 K, x2 = 0.7747	24.51
298.15 K, x2 = 0.8446	25.2
298.15 K, x2 = 0.9372	26.23
298.15 K, x2 = 0.9656	26.58
313.15 K, x2 = 0.0427	16.98
313.15 K, x2 = 0.1236	17.22
313.15 K, x2 = 0.1853	17.54
313.15 K, x2 = 0.2856	18.22
313.15 K, x2 = 0.3852	18.94
313.15 K, x2 = 0.5033	19.9
313.15 K, x2 = 0.6055	20.75
313.15 K, x2 = 0.6963	21.55
313.15 K, x2 = 0.794	22.48
313.15 K, x2 = 0.89	23.53
313.15 K, x2 = 0.9446	24.25
